Reference: the supplement of paper PMC10307832

Key:
Experiment in all cases: relative viability (nuclei count vs DMSO), 5 days (fraction); higher = more cells survive
NCI-H1993 = system: NCI-H1993
Summary of the method: (§1)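 Five library-drug doses in √10 steps were combined with a fixed anchor-drug dose, or a single drug was given alone, by pin tool to lung cancer cell lines in 1536-well plates the day after seeding. Nuclei were stained and counted after 5 days. Relative viability is the nuclei count in treated wells over that in vehicle wells, taken as the median of duplicate plates.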

NCI-H2009 = system: NCI-H2009
Summary of the method: as §1

NCI-H2170 = system: NCI-H2170
Summary of the method: as §1

NCI-H2228 = system: NCI-H2228
Summary of the method: as §1

NCI-H2347 = system: NCI-H2347
Summary of the method: as §1

NCI-H358 = system: NCI-H358
Summary of the method: as §1

NCI-H522 = system: NCI-H522
Summary of the method: as §1

NCI-H647 = system: NCI-H647
Summary of the method: as §1

NCI-H838 = system: NCI-H838
Summary of the method: as §1

SK-MES-1 = system: SK-MES-1
Summary of the method: as §1

UMC-11 = system: UMC-11
Summary of the method: as §1

O=c1cc(N2CCOCC2)oc2c(-c3cccc4c3sc3ccccc34)cccc12 + Cc1cc(Nc2cc(N3CCN(C)CC3)nc(Sc3ccc(NC(=O)C4CC4)cc3)n2)n[nH]1 [Tozasertib] (partner 0.1 µM)
relative viability (NCI-H1993; first compound 0.3162 µM): 0.566
relative viability (NCI-H1993; first compound 1 µM): 0.62
relative viability (NCI-H2009; first compound 0.01 µM): 0.747
relative viability (NCI-H2009; first compound 0.03162 µM): 0.704
relative viability (NCI-H2009; first compound 0.1 µM): 0.8
relative viability (NCI-H2009; first compound 0.3162 µM): 0.708
relative viability (NCI-H2009; first compound 1 µM): 0.708
relative viability (NCI-H2170; first compound 0.01 µM): 0.741
relative viability (NCI-H2170; first compound 0.03162 µM): 0.673
relative viability (NCI-H2170; first compound 0.1 µM): 0.758
relative viability (NCI-H2170; first compound 0.3162 µM): 0.801
relative viability (NCI-H2170; first compound 1 µM): 0.707
relative viability (NCI-H2228; first compound 0.01 µM): 0.331
relative viability (NCI-H2228; first compound 0.03162 µM): 0.267
relative viability (NCI-H2228; first compound 0.1 µM): 0.217
relative viability (NCI-H2228; first compound 0.3162 µM): 0.224
relative viability (NCI-H2228; first compound 1 µM): 0.228
relative viability (NCI-H2347; first compound 0.01 µM): 0.618
relative viability (NCI-H2347; first compound 0.03162 µM): 0.599
relative viability (NCI-H2347; first compound 0.1 µM): 0.538
relative viability (NCI-H2347; first compound 0.3162 µM): 0.526
relative viability (NCI-H2347; first compound 1 µM): 0.549
relative viability (NCI-H358; first compound 0.01 µM): 0.113
relative viability (NCI-H358; first compound 0.03162 µM): 0.102
relative viability (NCI-H358; first compound 0.1 µM): 0.115
relative viability (NCI-H358; first compound 0.3162 µM): 0.0946
relative viability (NCI-H358; first compound 1 µM): 0.101
relative viability (NCI-H522; first compound 0.01 µM): 0.548
relative viability (NCI-H522; first compound 0.03162 µM): 0.607
relative viability (NCI-H522; first compound 0.1 µM): 0.594
relative viability (NCI-H522; first compound 0.3162 µM): 0.551
relative viability (NCI-H522; first compound 1 µM): 0.61
relative viability (NCI-H647; first compound 0.01 µM): 0.369
relative viability (NCI-H647; first compound 0.03162 µM): 0.32
relative viability (NCI-H647; first compound 0.1 µM): 0.262
relative viability (NCI-H647; first compound 0.3162 µM): 0.295
relative viability (NCI-H647; first compound 1 µM): 0.226
relative viability (NCI-H838; first compound 0.01 µM): 0.246
relative viability (NCI-H838; first compound 0.03162 µM): 0.273
relative viability (NCI-H838; first compound 0.1 µM): 0.27
relative viability (NCI-H838; first compound 0.3162 µM): 0.298
relative viability (NCI-H838; first compound 1 µM): 0.237
relative viability (SK-MES-1; first compound 0.01 µM): 0.964
relative viability (SK-MES-1; first compound 0.03162 µM): 0.935
relative viability (SK-MES-1; first compound 0.1 µM): 1.05
relative viability (SK-MES-1; first compound 0.3162 µM): 0.897
relative viability (SK-MES-1; first compound 1 µM): 0.875
relative viability (UMC-11; first compound 0.01 µM): 0.194
relative viability (UMC-11; first compound 0.03162 µM): 0.208
relative viability (UMC-11; first compound 0.1 µM): 0.202
relative viability (UMC-11; first compound 0.3162 µM): 0.209
relative viability (UMC-11; first compound 1 µM): 0.202
